Results reported in patent publication US8163724B2, “Glucocorticosteroids, processes for their preparation, pharmaceutical compositions containing them and their use in therapy” (AstraZeneca AB, priority 2007, dated 2012).

target: T1, recombinant human GR (Homo sapiens, UniProt P04150); test: Human Glucocorticoid Receptor (GR) Assay (fluorescence polarization, Panvera/Invitrogen kit); format: binding; settings: fluorescence polarization; GS Red tracer; 2 hours at room temperature; 100% control 10 μM Dexamethasone; read-out: Inhibition of GR binding, IC50
T1 construct: purchased Panvera/Invitrogen P2812 (kit P2893)
T1 sequence (P04150 1-777): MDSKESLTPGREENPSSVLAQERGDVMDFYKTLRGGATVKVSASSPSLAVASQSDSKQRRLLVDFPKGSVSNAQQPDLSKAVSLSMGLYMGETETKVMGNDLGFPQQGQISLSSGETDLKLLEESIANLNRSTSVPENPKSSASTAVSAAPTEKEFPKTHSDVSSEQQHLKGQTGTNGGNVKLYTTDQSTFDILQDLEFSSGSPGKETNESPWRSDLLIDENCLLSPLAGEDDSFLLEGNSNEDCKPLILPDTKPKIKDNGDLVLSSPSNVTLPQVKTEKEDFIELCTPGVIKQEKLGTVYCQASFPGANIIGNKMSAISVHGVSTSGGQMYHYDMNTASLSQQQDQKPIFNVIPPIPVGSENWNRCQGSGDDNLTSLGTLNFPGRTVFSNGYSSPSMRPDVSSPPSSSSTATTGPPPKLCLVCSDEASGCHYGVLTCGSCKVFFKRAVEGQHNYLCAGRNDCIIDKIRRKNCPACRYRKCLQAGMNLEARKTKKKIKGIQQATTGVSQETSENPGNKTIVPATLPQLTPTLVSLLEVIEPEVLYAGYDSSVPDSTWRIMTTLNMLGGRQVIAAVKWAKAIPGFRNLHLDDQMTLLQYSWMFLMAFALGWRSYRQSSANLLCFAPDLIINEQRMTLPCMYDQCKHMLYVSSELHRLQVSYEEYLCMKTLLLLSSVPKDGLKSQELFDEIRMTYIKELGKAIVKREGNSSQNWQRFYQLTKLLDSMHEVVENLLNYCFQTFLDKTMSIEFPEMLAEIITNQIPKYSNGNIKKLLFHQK
Procedure, shortened: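 Fluorescence polarization competition with recombinant GR and GS Red fluorescent ligand plus stabilizing peptide and DTT in potassium phosphate/sodium molybdate/EDTA buffer with DMSO. Incubated 2 hours at room temperature in the dark; 0% control DMSO, 100% control 10 μM dexamethasone.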

Compared with CSC(=O)[C@@]1(OC(=O)[C@H]2CCCO2)CC[C@H]2[C@@H]3CCC4=Cc5c(cnn5-c5ccc(F)nc5)C[C@]4(C)[C@H]3[C@@H](O)C[C@@]21C [Example 188, (1R,3aS,3bS,10aR,10bS,11S,12aS)-7-(6-Fluoropyridin-3-yl)-11-hydroxy-10a,12a-dimethyl-1-[(methylsulfanyl)carbonyl]-1,2,3,3a,3b,4,5,7,10,10a,10b,11,12,12a-tetradecahydrocyclopenta[5,6]naphtho[1,2]-indazol-1-yl (2R)-tetrahydrofuran-2-carboxylate], C[C@]12Cc3cnn(-c4cnccn4)c3C=C1CC[C@@H]1[C@@H]2[C@@H](O)C[C@@]2(C)[C@H]1CC[C@]2(OC(=O)C1CC1)C(=O)SCC#N [Example 189, (1R,3aS,3bS,10aR,10bS,11S,12aS)-1-{[(Cyanomethyl)sulfanyl]carbonyl}-11-hydroxy-10a,12a-dimethyl-7-pyrazin-2-yl-1,2,3,3a,3b,4,5,7,10,10a,10b,11,12,12a-tetradecahydrocyclopenta[5,6]naphtho[1,2-f]indazol-1-yl cyclopropanecarboxylate] is 4.2-fold higher in IC50: 1.2 nM for the first, 5 nM for the second. The first is the more potent here.

First: C[C@]12Cc3cnn(-c4cnccn4)c3C=C1CC[C@@H]1[C@@H]2[C@@H](O)C[C@@]2(C)[C@H]1CC[C@]2(OC(=O)C1CC1)C(=O)SCCO [Example 190, (1R,3aS,3bS,10aR,10bS,11S,12aS)-11-Hydroxy-{[(2-hydroxyethyl)sulfanyl]carbonyl}-10a,12a-dimethyl-7-pyrazin-2-yl-1,2,3,3a,3b,4,5,7,10,10a,10b,11,12,12a-tetradecahydrocyclopenta[5,6]naphtho[1,2-f]indazol-1-yl cyclopropane carboxylate]
Second: C[C@]12Cc3cnn(-c4ccc(F)cc4)c3C=C1CC[C@H]1[C@@H]3CC[C@](OC(=O)C4CC4)(C(=O)SCF)[C@@]3(C)C[C@H](O)[C@@]12F [Example 196, (1R,3aS,3bS,10aS,10bR,11S,12aS)-1-{[(Fluoromethyl)sulfanyl]carbonyl}-10b-fluoro-7-(4-fluorophenyl)-11-hydroxy-10a,12a-dimethyl-1,2,3,3a,3b,4,5,7,10,10a,10b,11,12,12a-tetradecahydrocyclopenta[5,6]naphtho[1,2-f]indazol-1-yl cyclopropanecarboxylate]
The IC50 of the first is 3.8-fold lower: 3.7 nM for the first, 14 nM for the second. The first is the more potent here.

C[C@]12Cc3cnn(-c4ccc(F)cc4)c3C=C1CC[C@H]1[C@@H]3CC[C@](OC(=O)c4ccco4)(C(=O)SCC#N)[C@@]3(C)C[C@H](O)[C@@]12F [Example 193, (1R,3aS,3bS,10aS,10bR,11S,12aS)-1-{[(Cyanomethyl)sulfanyl]carbonyl}-10b-fluoro-7-(4-fluorophenyl)-11-hydroxy-10a,12a-dimethyl-1,2,3,3a,3b,4,5,7,10,10a,11,12,12a-tetradecahydrocyclopenta[5,6]naphtho[1,2-f]indazol-1-yl furan-2-carboxylate] and C[C@]12Cc3cnn(-c4ccc(F)cc4)c3C=C1CC[C@H]1[C@@H]3CC[C@](OC(=O)c4ccco4)(C(=O)SCF)[C@@]3(C)C[C@H](O)[C@@]12F [Example 194, (1R,3aS,3bS,10aS,10bR,11S,12aS)-1-{[(Fluoromethyl)sulfanyl]carbonyl}-10b-fluoro-7-(4-fluorophenyl)-11-hydroxy-10a,12a-dimethyl-1,2,3,3a,3b,4,5,7,10,10a,10b,11,12,12a-tetradecahydrocyclopenta[5,6]naphtho[1,2-f]indazol-1-yl furan-2-carboxylate] are within 1.5-fold of each other in IC50: 3.3 nM for the first, 2.3 nM for the second.

C[C@]12Cc3cnn(-c4ccc(F)cc4)c3C=C1CC[C@H]1[C@@H]3CC[C@](OC(=O)C4CC4)(C(=O)SCC#N)[C@@]3(C)C[C@H](O)[C@@]12F [Example 195, (1R,3aS,3bS,10aS,10bR,11S,12aS)-1-{[(Cyanomethyl)sulfanyl]carbonyl}-10b-fluoro-7-(4-fluorophenyl)-11-hydroxy-10a,12a-dimethyl-1,2,3,3a,3b,4,5,7,10,10a,10b,11,12,12a-tetradecahydrocyclopenta[5,6]naphtho[1,2]-indazol-1-yl cyclopropanecarboxylate] and CCC(=O)O[C@]1(C(=O)SCC#N)CC[C@H]2[C@@H]3CCC4=Cc5c(cnn5-c5ccc(F)cc5)C[C@]4(C)[C@@]3(F)[C@@H](O)C[C@@]21C [Example 199, (1R,3aS,3bS,10aS,10bR,11S,12aS)-1-{[(Cyanomethyl)sulfanyl]carbonyl}-10b-fluoro-7-(4-fluorophenyl)-11-hydroxy-10a,12a-dimethyl-1,2,3,3a,3b,4,5,7,10,10a,10b,11,12,12a-tetradecahydrocyclopenta[5,6]naphtho[1,2-f]indazol-1-yl propanoate] are within 1.5-fold of each other in IC50: 4.7 nM for the first, 4.6 nM for the second.

COCC(=O)O[C@]1(C(=O)SCC#N)CC[C@H]2[C@@H]3CCC4=Cc5c(cnn5-c5ccc(F)cc5)C[C@]4(C)[C@@]3(F)[C@@H](O)C[C@@]21C [Example 197, (1R,3aS,3bS,10aS,10bR,11S,12aS)-1-{[(Cyanomethyl)sulfanyl]carbonyl}-10b-fluoro-7-(4-fluorophenyl)-11-hydroxy-10a,12a-dimethyl-1,2,3,3a,3b,4,5,7,10,10a,10b,11,12,12a-tetradecahydrocyclopenta[5,6]naphtho[1,2-f]indazol-1-yl methoxyacetate] and COCC(=O)O[C@]1(C(=O)SCF)CC[C@H]2[C@@H]3CCC4=Cc5c(cnn5-c5ccc(F)cc5)C[C@]4(C)[C@@]3(F)[C@@H](O)C[C@@]21C [Example 198, (1R,3aS,3bS,10aS,10bR,11S,12aS)-1-{[(Fluoromethyl)sulfanyl]carbonyl}-10b-fluoro-7-(4-fluorophenyl)-11-hydroxy-10a,12a-dimethyl-1,2,3,3a,3b,4,5,7,10,10a,10b,11,12,12a-tetradecahydrocyclopenta[5,6]naphtho[1,2-f]indazol-1-yl methoxyacetate] are within 1.5-fold of each other in IC50: 3.3 nM for the first, 2.6 nM for the second.

Compared with CCC(=O)O[C@]1(C(=O)SCF)CC[C@H]2[C@@H]3CCC4=Cc5c(cnn5-c5ccc(F)cc5)C[C@]4(C)[C@@]3(F)[C@@H](O)C[C@@]21C [Example 200, (1R,3aS,3bS,10aS,10bR,11S,12aS)-1-{[(Fluoromethyl)sulfanyl]carbonyl}-10b-fluoro-7-(4-fluorophenyl)-11-hydroxy-10a,12a-dimethyl-1,2,3,3a,3b,4,5,7,10,10a,10b,11,12,12a-tetradecahydrocyclopenta[5,6]naphtho[1,2-f]indazol-1-yl propanoate], CCC(=O)O[C@]1(C(=O)SCF)CC[C@H]2[C@@H]3CCC4=Cc5c(cnn5-c5ccc(F)nc5)C[C@]4(C)[C@@]3(F)[C@@H](O)C[C@@]21C [Example 204, (1R,3aS,3bS,10aS,10bR,11S,12aS)-1-{[(Fluoromethyl)sulfanyl]carbonyl}-10b-fluoro-7-(6-fluoropyridin-3-yl)-11-hydroxy-10a,12a-dimethyl-1,2,3,3a,3b,4,5,7,10,10a,10b,11,12,12a-tetradecahydrocyclopenta[5,6]naphtho[1,2-f]indazol-1-yl propanoate] is 4.2-fold lower in IC50: 14 nM for the first, 3.3 nM for the second.

C[C@]12Cc3cnn(-c4ccc(F)cc4)c3C=C1CC[C@H]1[C@@H]3CC[C@](OC(=O)c4cocn4)(C(=O)SCC#N)[C@@]3(C)C[C@H](O)[C@@]12F [Example 201, (1R,3aS,3bS,10aS,10bR,11S,12aS)-1-{[(Cyanomethyl)sulfanyl]-carbonyl}-10b-fluoro-7-(4-fluorophenyl)-11-hydroxy-10a,12a-dimethyl-1,2,3,3a,3b,4,5,7,10,10a,10b,11,12,12a-tetradecahydrocyclopenta[5,6]naphtho[1,2-f]indazol-1-yl 1,3-oxazole-4-carboxylate] and C[C@]12Cc3cnn(-c4ccc(F)cc4)c3C=C1CC[C@H]1[C@@H]3CC[C@](OC(=O)c4cocn4)(C(=O)SCF)[C@@]3(C)C[C@H](O)[C@@]12F [Example 202, (1R,3aS,3bS,10aS,10bR,11S,12aS)-1-{[(Fluoromethyl)sulfanyl]carbonyl}-10b-fluoro-7-(4-fluorophenyl)-11-hydroxy-10a,12a-dimethyl-1,2,3,3a,3b,4,5,7,10,10a,10b,11,12,12a-tetradecahydrocyclopenta[5,6]naphtho[1,2-f]indazol-1-yl 1,3-oxazole-4-carboxylate] are within 1.5-fold of each other in IC50: 5.3 nM for the first, 5.8 nM for the second.

CCC(=O)O[C@]1(C(=O)SCC#N)CC[C@H]2[C@@H]3CCC4=Cc5c(cnn5-c5ccc(F)nc5)C[C@]4(C)[C@@]3(F)[C@@H](O)C[C@@]21C [Example 203, (1R,3aS,3bS,10aS,10bR,11S,12aS)-1-{[(Cyanomethyl)sulfanyl]carbonyl}-10b-fluoro-7-(6-fluoropyridin-3-yl)-11-hydroxy-10a,12a-dimethyl-1,2,3,3a,3b,4,5,7,10,10a,10b,11,12,12a-tetradecahydrocyclopenta[5,6]naphtho[1,2-f]indazol-1-yl propanoate] was tested, and the IC50 was 2.3 nM.
